How the values were obtained:
[1] = system: Hs 746T (human gastric carcinoma cell line); experiment: 48 hr CTG viability assay, Hs 746T; assay type: cell-based; details: Hs746T, 48 hr CTG, read-out: Hs 746T IC50
How it was run: (§1)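 Growth inhibition by compound over 48 h; IC50 (nM) derived from duplicate CellTiter-Glo luminescence readings across 0.0015–10 uM.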

[2] = target: T1, β5 subunit of the human constitutive proteasome (CPS) (Homo sapiens, UniProt P28074); experiment: β5 inhibition assay, human constitutive proteasome (Suc-LLVY-AMC); assay type: biochemical; details: IC50 class, Suc-LLVY-AMC substrate
T1 construct: purchased Boston Biochem E-360
Method: The enzymatic activity of the β5 subunit of the human constitutive proteasome (CPS) is analyzed. In another assay, which differs from the assay of the human constitutive proteasome only in using the human immunoproteasome (IPS) the enzymatic activity of the β5 subunit of the human immunoproteasome (IPS) is analyzed. […] Inhibition is indicated as IC50 [nM] (“-”=not measured).

[3] = target: T2, β5 subunit of the human immunoproteasome (IPS) (Homo sapiens, UniProt P28062); experiment: β5 inhibition assay, human immunoproteasome (Suc-LLVY-AMC); assay type: biochemical; details: IC50 class, Suc-LLVY-AMC substrate
T2 construct: purchased Boston Biochem E-370
How it was run: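 β5 activity is read as liberated AMC fluorescence (355/460 nm) after 4 h dark reaction at RT with 22.6 μM Suc-LLVY-AMC, stopped by 1 μM bortezomib. Beforehand, 1 nM human IPS and compound sat 10 min at RT in HEPES pH 7.5 buffer containing NaCl, 0.02% SDS and DTT.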

[4] = system: RPMI 8226 (B lymphocyte cell line, multiple myeloma); experiment: 48 hr CTG viability assay, RPMI 8226; assay type: cell-based; details: Homo sapiens, RPMI-8226; 48 hr CTG; read-out: RPMI-8226 IC50
How it was run: as §1

[5] = system: MM1 S (B lymphoblast cell line); experiment: 48 hr CTG viability assay, MM1S; assay type: cell-based; details: Homo sapiens, 48 hr CTG, read-out: MM1S IC50
How it was run: as §1

[6] = system: A549 (human lung carcinoma cell line); experiment: Glo assay of A549 cells (Table 3; ProteasomeGlo plating scheme); assay type: cell-based; details: Homo sapiens; A549 cells; read-out: PGLo A549
How it was run: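 After acoustic compound transfer, plates incubate 105 min (37° C., 5% CO2). Proteasome-Glo reagent containing Suc-LLVY-Glo substrate is added, plates are shaken, then luminescence is measured after 10-15 min to derive IC50 [nM]. Staurosporine and DMSO serve as controls.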

SMILES | IC50 [1] | IC50 [2] | IC50 [3] | IC50 [4] | IC50 [5] | IC50 [6]
Cc1ccc2cc1CNC(=O)[C@H](CCc1ccccc1)NC(=O)[C@@H](NC(=O)CCOCCc1ccccc1)CC(=O)N1CCCC(CCO2)C1 (stereo partly drawn) [Compound 618, N-((9S,12S)-5^4-methyl-8,11,14-trioxo-9-phenethyl-4-oxa-7,10-diaza-1(3,1)-piperidina-5(1,3)-benzenacyclotetradecaphane-12-yl)-3-phenethoxypropanamide] | < 100 nM | < 100 nM | < 100 nM | < 100 nM | < 100 nM | < 100 nM
COCCOCCC(=O)N[C@H]1CC(=O)N2CCCC(CCOc3ccc(C)c(c3)CNC(=O)[C@H](CCc3ccccc3)NC1=O)C2 (stereo partly drawn) [Compound 596, 3-(2-methoxyethoxy)-N-((9S,12S)-5^4-methyl-8,11,14-trioxo-9-phenethyl-4-oxa-7,10-diaza-1(3,1)-piperidina-5(1,3)-benzenacyclotetradecaphane-12-yl)propanamide] | < 100 nM | < 100 nM | < 100 nM | < 100 nM | < 100 nM | < 100 nM
COc1ccccc1COCCC(=O)N[C@H]1CC(=O)N2CCCC(CCOc3ccc(C)c(c3)CNC(=O)[C@H](CCc3ccccc3)NC1=O)C2 (stereo partly drawn) [Compound 619, 3-((2-methoxybenzyl)oxy)-N-((9S,12S)-5^4-methyl-8,11,14-trioxo-9-phenethyl-4-oxa-7,10-diaza-1(3,1)-piperidina-5(1,3)-benzenacyclotetradecaphane-12-yl)propanamide] | < 100 nM | < 100 nM | < 100 nM | < 100 nM | < 100 nM | < 100 nM
Cc1ccc2cc1CNC(=O)[C@H](CCc1ccccc1)NC(=O)[C@@H](NC(=O)CCN1CCC3(CCOCC3)CC1)CC(=O)N1CCCC(CCO2)C1 (stereo partly drawn) [Compound 611, N-((9S,12S)-5^4-methyl-8,11,14-trioxo-9-phenethyl-4-oxa-7,10-diaza-1(3,1)-piperidina-5(1,3)-benzenacyclotetradecaphane-12-yl)-3-(3-oxa-9-azaspiro[5.5]undecan-9-yl)propanamide] | < 100 nM | < 100 nM | < 100 nM | < 100 nM | < 100 nM | < 100 nM
Cc1ccc2cc1CNC(=O)[C@H](CCc1ccccc1)NC(=O)[C@@H](NC(=O)CCN1CCC3(CCC3)C1)CC(=O)N1CCCC(CCO2)C1 (stereo partly drawn) [Compound 639, N-((9S,12S)-5^4-methyl-8,11,14-trioxo-9-phenethyl-4-oxa-7,10-diaza-1(3,1)-piperidina-5(1,3)-benzenacyclotetradecaphane-12-yl)-3-(6-azaspiro[3.4]octan-6-yl)propanamide] | < 100 nM | < 100 nM | < 100 nM | < 100 nM | < 100 nM | < 100 nM
Cc1ccc2cc1CNC(=O)[C@H](CCc1ccccc1)NC(=O)[C@@H](NC(=O)CCOCCC1CCC1)CC(=O)N1CCCC(CCO2)C1 (stereo partly drawn) [Compound 627, 3-(2-cyclobutylethoxy)-N-((9S,12S)-5^4-methyl-8,11,14-trioxo-9-phenethyl-4-oxa-7,10-diaza-1(3,1)-piperidina-5(1,3)-benzenacyclotetradecaphane-12-yl)propanamide] | < 100 nM | < 100 nM | < 100 nM | < 100 nM | < 100 nM | < 100 nM
COc1ccc(CCCOCCC(=O)N[C@H]2CC(=O)N3CCCC(CCOc4ccc(C)c(c4)CNC(=O)[C@H](CCc4ccccc4)NC2=O)C3)cc1 (stereo partly drawn) [Compound 606, 3-(3-(4-methoxyphenyl)propoxy)-N-((9S,12S)-5^4-methyl-8,11,14-trioxo-9-phenethyl-4-oxa-7,10-diaza-1(3,1)-piperidina-5(1,3)-benzenacyclotetradecaphane-12-yl)propanamide] | < 100 nM | < 100 nM | < 100 nM | < 100 nM | < 100 nM | < 100 nM

Other lines, results leading:

IC50 [1] | IC50 [2] | IC50 [3] | IC50 [4] | IC50 [5] | IC50 [6] | SMILES
< 100 nM | < 100 nM | < 100 nM | < 100 nM | < 100 nM | < 100 nM | Cc1ccc2cc1CNC(=O)[C@H](CCc1ccccc1)NC(=O)[C@@H](NC(=O)CCNCCC1CC1)CC(=O)N1CCCC(CCO2)C1 (stereo partly drawn) [Compound 679, 3-((2-cyclopropylethyl)amino)-N-((9S,12S)-5^4-methyl-8,11,14-trioxo-9-phenethyl-4-oxa-7,10-diaza-1(3,1)-piperidina-5(1,3)-benzenacyclotetradecaphane-12-yl)propanamide]
< 100 nM | < 100 nM | < 100 nM | < 100 nM | < 100 nM | < 100 nM | Cc1ccc2cc1CNC(=O)[C@H](CCc1ccccc1)NC(=O)[C@@H](NC(=O)C(C)(C)C(F)(F)F)CC(=O)N1CCCC(CCO2)C1 (stereo partly drawn) [Compound 646, 3,3,3-trifluoro-2,2-dimethyl-N-((9S,12S)-5^4-methyl-8,11,14-trioxo-9-phenethyl-4-oxa-7,10-diaza-1(3,1)-piperidina-5(1,3)-benzenacyclotetradecaphane-12-yl)propanamide]
< 100 nM | < 100 nM | < 100 nM | < 100 nM | < 100 nM | < 100 nM | CC(=O)N1CC(CC(=O)N[C@H]2CC(=O)N3CCCC(CCOc4ccc(C)c(c4)CNC(=O)[C@H](CCc4ccccc4)NC2=O)C3)C1 (stereo partly drawn) [Compound 697, 2-(1-acetylazetidin-3-yl)-N-((9S,12S)-5^4-methyl-8,11,14-trioxo-9-phenethyl-4-oxa-7,10-diaza-1(3,1)-piperidina-5(1,3)-benzenacyclotetradecaphane-12-yl)acetamide]
< 100 nM | < 100 nM | < 100 nM | < 100 nM | < 100 nM | < 100 nM | Cc1ccc2cc1CNC(=O)[C@H](CCc1ccccc1)NC(=O)[C@@H](NC(=O)CCN1CCCC1)CC(=O)N1CCCC(CCO2)C1 (stereo partly drawn) [Compound 668, N-((9S,12S)-5^4-methyl-8,11,14-trioxo-9-phenethyl-4-oxa-7,10-diaza-1(3,1)-piperidina-5(1,3)-benzenacyclotetradecaphane-12-yl)-3-(pyrrolidin-1-yl)propanamide]
500 to 1000 nM | < 100 nM | < 100 nM | 100 to 500 nM | 100 to 500 nM | 100 to 500 nM | Cc1ccc2cc1CNC(=O)[C@H](CCc1ccccc1)NC(=O)[C@@H](NC(=O)C(C)(C)CO)CCC(=O)NCCCCO2 [Compound 726, 3-hydroxy-2,2-dimethyl-N-((11S,14S)-1^4_ methyl-8,12,15-trioxo-1^4-phenethyl-2-oxa-7,13,16-triaza-1(1,3)-benzenacycloheptadecaphane-11-yl)propanamide]
< 100 nM | < 100 nM | < 100 nM | < 100 nM | < 100 nM | 100 to 500 nM | Cc1ccc2cc1CNC(=O)[C@H](CCc1ccccc1)NC(=O)[C@@H](NC(=O)CCNCC1CCCC1)CC(=O)N1CCCC(CCO2)C1 (stereo partly drawn) [Compound 677, 3-((cyclopentylmethyl)amino)-N-((9S,12S)-5^4-methyl-8,11,14-trioxo-9-phenethyl-4-oxa-7,10-diaza-1(3,1)-piperidina-5(1,3)-benzenacyclotetradecaphane-12-yl)propanamide]
100 to 500 nM | < 100 nM | < 100 nM | 100 to 500 nM | < 100 nM | < 100 nM | Cc1ccc2cc1CNC(=O)[C@H](CCc1ccccc1)NC(=O)[C@@H](NC(=O)Cc1ccc(N)cc1C)CCCC(=O)NCCCCO2 [Compound 718, 2-(4-amino-2-methylphenyl)-N-((12S,15S)-1^4-methyl-8,13,16-trioxo-15-phenethyl-2-oxa-7,14,17-triaza-1(1,3)-benzenacyclooctadecaphane-12-yl)acetamide]
< 100 nM | < 100 nM | < 100 nM | < 100 nM | < 100 nM | < 100 nM | Cc1ccc2cc1CNC(=O)[C@H](CCc1ccccc1)NC(=O)[C@@H](NC(=O)CCNC1CC3(CCC3)C1)CC(=O)N1CCCC(CCO2)C1 (stereo partly drawn) [Compound 657, N-((9S,12S)-5^4-methyl-8,11,14-trioxo-9-phenethyl-4-oxa-7,10-diaza-1(3,1)-piperidina-5(1,3)-benzenacyclotetradecaphane-12-yl)-3-(spiro[3.3]heptan-2-ylamino)propanamide]
< 100 nM | < 100 nM | < 100 nM | < 100 nM | < 100 nM | < 100 nM | CC(C)(CO)C(=O)N[C@H]1CC(=O)N2CCCC(CCOc3ccc(F)c(c3)CNC(=O)[C@H](CCc3ccccc3)NC1=O)C2 (stereo partly drawn) [Compound 684, N-((9S,12S)-5^4-fluoro-8,11,14-trioxo-9-phenethyl-4-oxa-7,10-diaza-1(3,1)-piperidina-5(1,3)-benzenacyclotetradecaphane-12-yl)-3-hydroxy-2,2-dimethylpropanamide]
